Drawing on article PMC6631223, “Chain-Branched Polyhydroxylated Octahydro-1H-Indoles as Potential Leads against Lysosomal Storage Diseases” (Pharmaceuticals, 2019), this text covers inhibition for two compounds.

As a reminder, the inhibition is the change of the read-out against control, counted positive when it falls. A high value points to a strong effect.

The target in one experiment is T1, β-Glucronidase (E.coli) (Escherichia coli, UniProt P05804).
T1 construct: purchased Sigma-Aldrich Co
Put plainly: Glycosidase inhibition: β-glucuronidase (E. coli). The class given is biochemical. The settings on record: β-glucuronidase, E. coli; 1000 μM. The source says: (§1) The enzymes α-glucosidase (from yeast, rice), β-glucosidase (from almonds, bovine liver), α-galactosidase (from coffee beans), β-galactosidase (from bovine liver), α-mannosidase (from jack beans), β-mannosidase (from snails), α-L-fucosidase (from bovine kidney), α-L-rhamnosidase (from Penicillium decumbens), β-glucuronidases (from Escherichia coli), α,α-trehalase (from porcine kidney), amyloglucosidase (from Aspergillus niger), p-nitrophenyl glycosides, and various disaccharides were purchased from Sigma-Aldrich Co. Brush border membranes were prepared from the rat small intestine according to the method of Kessler et al., and were assayed at pH 6.8 for rat intestinal maltase using maltose. For rat intestinal glucosidases and porcine kidney trehalase activities, the reaction mixture (0.2 mL) contained 25 mM substrate and the appropriate amount of enzyme, and the incubations were performed for 10 min at 37 °C. The reaction was stopped by heating at 100 °C for 3 min. After centrifugation (600 g; 10 min), 0.035 mL of the resulting reaction mixture were added to 2.1 mL of the Glucose CII-test Wako (Wako Pure Chemical Ind., Osaka, Japan). The absorbance at 505 nm was measured to determine the amount of the released D-glucose. Other glycosidase activities were determined using an appropriate p-nitrophenyl glycoside as substrate at the optimum pH of each enzyme. The reaction mixture (0.2 mL) contained 2 mM of the substrate and the appropriate amount of enzyme. The reaction was stopped by adding 0.4 mL of 400 mM Na2CO3. The released p-nitrophenol was measured spectrometrically at 400 nm.

Experiment [1] deals with T2, α-Mannosidase (jack bean) (Canavalia ensiformis, UniProt C0HJB3).
T2 construct: purchased Sigma-Aldrich Co
T2 sequence (C0HJB3 1-981): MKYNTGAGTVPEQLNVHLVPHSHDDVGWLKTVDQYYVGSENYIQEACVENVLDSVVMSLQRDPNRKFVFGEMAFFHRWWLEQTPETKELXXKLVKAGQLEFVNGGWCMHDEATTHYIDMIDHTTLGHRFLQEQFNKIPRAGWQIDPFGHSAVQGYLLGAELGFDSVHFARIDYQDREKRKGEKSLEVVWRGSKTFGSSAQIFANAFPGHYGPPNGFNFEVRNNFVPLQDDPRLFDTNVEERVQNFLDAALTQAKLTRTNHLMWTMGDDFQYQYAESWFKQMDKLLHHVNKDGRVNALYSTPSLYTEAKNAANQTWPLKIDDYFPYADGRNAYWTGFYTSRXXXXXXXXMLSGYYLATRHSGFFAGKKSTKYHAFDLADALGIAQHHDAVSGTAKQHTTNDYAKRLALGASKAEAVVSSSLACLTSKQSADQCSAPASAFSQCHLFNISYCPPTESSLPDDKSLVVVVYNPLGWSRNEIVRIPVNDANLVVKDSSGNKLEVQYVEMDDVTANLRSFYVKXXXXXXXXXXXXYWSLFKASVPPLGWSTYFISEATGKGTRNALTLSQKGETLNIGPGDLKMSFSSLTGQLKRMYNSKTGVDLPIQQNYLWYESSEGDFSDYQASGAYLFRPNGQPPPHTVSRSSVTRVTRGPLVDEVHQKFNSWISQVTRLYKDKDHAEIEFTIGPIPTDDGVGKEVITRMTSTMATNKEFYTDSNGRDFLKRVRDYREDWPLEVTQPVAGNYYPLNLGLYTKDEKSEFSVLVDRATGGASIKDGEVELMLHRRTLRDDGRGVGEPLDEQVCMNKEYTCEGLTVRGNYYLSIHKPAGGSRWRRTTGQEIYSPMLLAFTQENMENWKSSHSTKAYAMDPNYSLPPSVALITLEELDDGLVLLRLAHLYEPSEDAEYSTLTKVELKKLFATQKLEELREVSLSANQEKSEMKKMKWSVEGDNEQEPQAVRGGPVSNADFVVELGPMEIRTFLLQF
In words: Glycosidase inhibition: α-mannosidase (jack bean). In kind it is biochemical.
Excerpt: as §1, with “After centrifugation (600 g; 10 min), 0.035 mL of the resulting reaction mixture were added to 2.1 mL of the Glucose CII-test Wako (Wako Pure Chemical Ind., Osaka, Japan).” left out, “The reaction mixture (0.2 mL) contained 2 mM of the substrate and the appropriate amount of enzyme. The reaction was stopped by adding 0.4 mL of 400 mM Na2CO3.” left out

T1 sequence (P05804 whole entry): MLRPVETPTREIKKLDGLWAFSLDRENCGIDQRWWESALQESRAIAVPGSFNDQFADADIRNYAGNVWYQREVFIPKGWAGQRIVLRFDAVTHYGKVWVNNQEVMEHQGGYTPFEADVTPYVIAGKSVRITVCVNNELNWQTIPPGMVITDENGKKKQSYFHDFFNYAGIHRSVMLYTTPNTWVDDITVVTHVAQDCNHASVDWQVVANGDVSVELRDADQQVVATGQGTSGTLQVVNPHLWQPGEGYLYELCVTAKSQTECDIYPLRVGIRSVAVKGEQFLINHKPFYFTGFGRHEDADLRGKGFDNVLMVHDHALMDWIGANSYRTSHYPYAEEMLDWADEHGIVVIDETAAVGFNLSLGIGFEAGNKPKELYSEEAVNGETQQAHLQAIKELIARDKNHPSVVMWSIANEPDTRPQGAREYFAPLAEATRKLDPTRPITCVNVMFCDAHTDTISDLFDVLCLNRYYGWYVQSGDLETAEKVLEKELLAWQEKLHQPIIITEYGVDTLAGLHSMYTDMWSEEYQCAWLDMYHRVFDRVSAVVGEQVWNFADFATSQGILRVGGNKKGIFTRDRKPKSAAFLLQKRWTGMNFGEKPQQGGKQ

Regarding `CC[C@H]1CN[C@H]2C[C@@H](O)[C@H](O)[C@@H](O)[C@H]12` [Compound 13, (3R,3aR,4S,5S,6R,7aS)-3-ethyloctahydro-1H-indole-4,5,6-triol], the results for the inhibition at 1000 µM (at β-Glucronidase (E.coli); in experiment [1]) were 12.3% and 0%, respectively.
Taken in the same sequence, the figures for `CC[C@@H]1CN[C@H]2C[C@@H](O)[C@H](O)[C@@H](O)[C@H]12` [Compound 10, (3S,3aR,4S,5S,6R,7aS)-3-Ethyloctahydro-1H-indole-4,5,6-triol] were 18.1% and 0%.
